Source: patent US20240391912A1, “MORPHIC FORMS OF CFT7455 AND METHODS OF MANUFACTURE THEREOF” (C4 THERAPEUTICS, INC., priority 2022, published 2024)
“Also recorded” adds a separate entry of the source.

Columns and labels:
Assay type in all cases: physicochemical
[1] = Precipitation of Compound 1 by addition of anti-solvent to DMSO solution (XRPD, residual solvent); settings: for residual DMSO: 1H-NMR after vacuum drying at 80° C. for 2 hours; for Notes (appearance) / XRPD: solvent DMSO
Method: About 20 mg of Compound 1 Form I (free form) was dissolved in DMSO and anti-solvent was added into the obtained solution slowly. Precipitates were collected by filtration. The solid part (wet cake) was investigated by XRPD. Residual solvent of these solids was also analyzed by ^1H-NMR after vacuum dried at 80° C. for 2 hours.

[2] = Behavior of Compound 1 Form I under heating and cooling (DSC cycles); settings: for Melting onset: reheat to 300° C. at 10° C./min
Method: Polymorphic behavior of Compound 1 Form I (free form) was investigated by two different heating-cooling cycles of DSC. The results were summarized in Table 6. • HCH1: 30° C. to 300° C. at 10° C./min; 300° C. to −20° C. at 20° C./min; reheat to 300° C. at 10° C./min. • HCH2: 30° C. to 300° C. at 10° C./min; 300° C. to −20° C. at 2° C./min; reheat to 300° C. at 10° C./min.

[3] = Equilibration of Compound 1 Form I with solvents at 50° C. for 1 week (XRPD)
Method: About 50 mg of Compound 1 Form I (free form) was equilibrated in 1 mL of solvent at 50° C. for 1 week with a stirring plate. The obtained suspension was filtered and the solid part (wet cake) was investigated by XRPD.

[4] = Equilibration of Compound 1 Form I with solvents at 25° C. for 2 weeks (XRPD)
Method: About 30 mg of Compound 1 Form I (free form) was equilibrated in 1 mL of solvent at 25° C. for 2 weeks with a stirring plate. The obtained suspension was filtered. The solid part (wet cake) was investigated b XRPD.

[5] = Scale-up experiment (200 mg) and characterization of new polymorphs of Compound 1
Method: Scale-up 1: About 200 mg of Compound 1 Form I was dissolved in 10 mL THF/Water (95:5, v:v) at 40° C. […] Compound 1 Form IV was obtained. It was subjected to characterization.
Scale-up 2: About 200 mg of Compound 1 Form I was dissolved in 10 mL THF/Water (95:5, v:v) at 40° C. […] It was subjected to characterization.

[6] = anti-solvent Water, about 2 mg of seeds added
[7] = solids after equilibration in EtOH
[8] = solids after equilibration in EtOH, 25° C., 2 weeks

O=C1CC[C@H](N2C(=O)c3cccc4c(Cc5ccc(CN6CCOCC6)cc5)ccc2c34)C(=O)N1 [Compound 1 Form I, (S)-3-(6-(4-(morpholinomethyl)benzyl)-2-oxobenzo[cd]indol-1(2H)-yl)piperidine-2,6-dione]
residual DMSO ([1]; DMSO/EtOH precipitate): 0.05 equiv. residual | residual DMSO ([1]; DMSO/MeOH precipitate): 0.14 equiv. residual | residual DMSO ([1]; DMSO/Water precipitate): 0.90 equiv. residual | Notes (appearance) ([1]; anti-solvent Acetone, held at 5° C. for 2 days, no solid obtained): Clear solution^a | Notes (appearance) ([1]; anti-solvent EtOAc): Clear solution | Notes (appearance) ([1]; anti-solvent EtOH): Suspension | XRPD ([1]; anti-solvent EtOH): − | Notes (appearance) ([1]; anti-solvent MeOH): Suspension | XRPD ([1]; anti-solvent MeOH, wet cake): − | Notes (appearance) ([1]; anti-solvent Water): Suspension | XRPD ([1]; anti-solvent Water): − | Notes (appearance) [1, 6]: Suspension^b | XRPD [1, 6]: − | Melting onset ([2]; HCH1: 30° C. to 300° C. at 10° C./min, 300° C. to −20° C. at 20° C./min): Melting onset 231.4° ° C. | enthalpy ([2]; HCH1: cooling 300° C. to −20° C. at 20° C./min): C.; enthalpy 115 J/g | Melting onset ([2]; HCH2: 30° C. to 300° C. at 10° C./min, 300° C. to −20° C. at 2° C./min): Melting onset 231.3° ° C. | enthalpy ([2]; HCH2: cooling 300° C. to −20° C. at 2° C./min): C.; enthalpy 108 J/g | XRPD ([3]; equilibration in ACN): Form I | XRPD ([3]; equilibration in Acetone): Form I | XRPD ([3]; equilibration in DCM): Form I | XRPD ([3]; equilibration in DCM:MeOH (v:v = 1:1)): Form I | XRPD ([3]; equilibration in DCM:THF(v:v = 8:2)): Form I | XRPD ([3]; equilibration in EA): Form I | XRPD ([3]; equilibration in EtOH): Form I | XRPD ([3]; equilibration in MeOH): Form I | XRPD ([3]; equilibration in THF, wet cake): Form I | XRPD ([3]; equilibration in THF:Water (v:v = 95:5)): Form I | Melting onset [3, 7]: Melting onset: 239.5° C., | enthalpy [3, 7]: enthalpy: 109 J/g | residual DCM [3, 7]: 0.4% residual DCM | stability of the form in water (equilibration experiments) ([4]; alone in water / pure water): very stable; also recorded: stable | XRPD ([4]; equilibration in ACN, 25° C., 2 weeks): Form I | XRPD ([4]; equilibration in Acetone, 25° C., 2 weeks): Form I | XRPD ([4]; equilibration in DCM, 25° C., 2 weeks): Form I | XRPD ([4]; equilibration in DCM:MeOH (v:v = 1:1), 25° C., 2 weeks): Form I | XRPD ([4]; equilibration in DCM:THF(v:v = 8:2), 25° C., 2 weeks): Form I | XRPD ([4]; equilibration in EA, 25° C., 2 weeks): Form I | XRPD ([4]; equilibration in EtOH, 25° C., 2 weeks): Form I | XRPD ([4]; equilibration in MeOH, 25° C., 2 weeks): Form I | XRPD ([4]; equilibration in THF, 25° C., 2 weeks, wet cake): Form I | XRPD ([4]; equilibration in THF:Water (v:v = 95:5), 25° C., 2 weeks): Form I | Melting onset [4, 8]: Melting onset: 239.0° C., | enthalpy [4, 8]: enthalpy: 107 J/g | residual DCM [4, 8]: 0.4% residual DCM | Stoichiometry: DCM ([5]; 1H-NMR, listed as Form I): 0.6% DCM | DSC enthalpy ([5]; DSC, 10° C./min): enthalpy 114 J/g | DSC melting onset ([5]; DSC, 10° C./min): 233.9° C.;
